Data reported in patent US20050059684A1, “Method for reducing residual alcohols in crystalline valacyclovir hydrochloride” (priority 2002, published 2005).
Structures can show the parent of a compound that is named as a salt.

Test: Storage stability of valacyclovir hydrochloride: N′-formylvalacyclovir impurity level by HPLC
Type: physicochemical
Details: HPLC area percent; for N′-formylvalacyclovir level (area %), T = 0: before storage; for N′-formylvalacyclovir level (area %), T = 3 month, 25° C., 60% humidity: stored three months at 25° C. and 60% RH; for N′-formylvalacyclovir level (area %), T = 3 month, 40° C., 75% humidity: stored three months at 40° C. and 75% RH
Source text: When used herein in connection with the absolute amount of an impurity, percent refers to area percent of the corresponding impurity peak on the chromatogram obtained by high pressure liquid chromatography. [drawing 2]
Impurities in valacyclovir, especially N′-formylvalacyclovir, can be measure by high pressure liquid chromatography. The chromatographic method utilizes a suitable chromatography column such as the reverse phase column Inertsil ODS-3V 5 μm 150×4.6 mm (GL Sciences, Cat. No. 5020-01731). The eluent is preferably acetonitrile (27%) and water (73%) containing 0.05% phosphoric acid (0.5 g 85% H3PO4 in 1 L water). A flow rate of about 1.0 mL/min is suitable for the separation. The column temperature can be at ambient temperature, preferably about 25° C. The detector can be a UV-spectrophotometer operating in the range of 200-600 nm, preferably about 210 nm. The injection (sample) volume is about 50 μL. The diluent used to load the sample onto the column can be, for example, the eluent.
A sample of valacyclovir hydrochloride (sample X) having circa 1700 ppm residual solvent isopropanol was divided into two portions. One portion was treated by the method of the present invention and, after treatment, had less than 500 ppm residual isopropanol (sample Y). Sample Y and the non-treated portion of sample X were each divided into two roughly equal portions. One portion of each samplewas stored at 25° C. and 60% RH for three months, the other portions of each were stored at 40° C. and 75% RH for three months. The amount of N′-formylvalacyclovir in each of the four portions after storage was determined by HPLC.

| N′-formylvalacyclovir level (area %), T = 0 [area %] | N′-formylvalacyclovir level (area %), T = 3 month, 25° C., 60% humidity [area %] | N′-formylvalacyclovir level (area %), T = 3 month, 40° C., 75% humidity [area %] | SMILES |
| --- | --- | --- | --- |
| 0.05 | 0.08 | 0.15 | CC(C)C(N)C(=O)OCCOCn1cnc2c(=O)nc(N)[nH]c21 (stereo not drawn) [X, valacyclovir hydrochloride] |
| 0.03 | 0.03 | 0.05 | CC(C)C(N)C(=O)OCCOCn1cnc2c(=O)nc(N)[nH]c21 (stereo not drawn) [Y, valacyclovir hydrochloride] |
